What was measured:
[1] = tested on: Surinam grass; assay: Test B pre-/postemergence herbicide test; type: in vivo, Urochloa decumbens
Outline: (§1)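 Herbicidal effect was judged by eye on a 0–100 scale after plants stood 13 to 15 days in the greenhouse following pre- or postemergence treatment with surfactant-containing formulations.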

[2] = tested on: cocklebur; assay: Test B pre-/postemergence herbicide test; type: in vivo, Xanthium strumarium
Outline: (§2)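 Evaluation is visual, comparing treated with control plants on a scale where 0 means no effect and 100 means full control. Treatments were preemergence, or postemergence on seedlings 2–18 cm tall, and held 13–15 days in the greenhouse.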

[3] = tested on: corn; assay: Test B pre-/postemergence herbicide test; type: in vivo, Zea mays
Outline: as §1

[4] = tested on: large crabgrass; assay: Test B pre-/postemergence herbicide test; type: in vivo, Digitaria sanguinalis
Outline: as §1

[5] = tested on: giant foxtail; assay: Test B pre-/postemergence herbicide test; type: in vivo, Setaria faberi
Outline: as §1

[6] = tested on: lambsquarters; assay: Test B pre-/postemergence herbicide test; type: in vivo, Chenopodium album
Outline: as §1

[7] = tested on: morningglory; assay: Test B pre-/postemergence herbicide test; type: in vivo, Ipomoea coccinea
Outline: as §2

[8] = tested on: pigweed; assay: Test B pre-/postemergence herbicide test; type: in vivo, Amaranthus retroflexus
Outline: as §1

[9] = tested on: velvetleaf; assay: Test B pre-/postemergence herbicide test; type: in vivo, Abutilon theophrasti
Outline: as §1

[10] = tested on: blackgrass; assay: Test B postemergence herbicide test; type: in vivo, Alopecurus myosuroides
Outline: (§3)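 Each value is a visual 0–100 response rating taken against controls 13 to 15 days after treatment in the greenhouse. Plants received formulated chemical postemergence at the 1- to 4-leaf stage or, in flooded paddy, at the 2-leaf stage.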

[11] = tested on: wheat; assay: Test B postemergence herbicide test; type: in vivo, Triticum aestivum; parameters: key to Wheat plant response rating: 0 = no effect, 100 = complete control
Outline: (§4)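 Read-out: visual comparison with controls, scored 0 to 100, where 100 means complete control and 0 no effect. Formulated chemicals were applied postemergence to plants 2–18 cm tall (1- to 4-leaf), or to flooded-paddy plants at the 2-leaf stage, then held 13 to 15 days under glass.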

[12] = tested on: wild oat; assay: Test B postemergence herbicide test; type: in vivo, Avena fatua
Outline: as §4

[13] = tested on: rice; assay: Test B flooded paddy test; type: in vivo, Oryza sativa; conditions: 1000 g ai/ha, scale 0 to 100 (0 no effect, 100 complete control)
Outline: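 Treated at 2-leaf (paddy) or 1–4-leaf, 2–18 cm (postemergence); greenhouse 13–15 d; visual score vs control, 0 none to 100 complete control; dash = not tested.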

[14] = tested on: small flower umbrella sedge; assay: Test B flooded paddy test; type: in vivo, Cyperus difformis; conditions: 1000 g ai/ha, scale 0 to 100 (0 no effect, 100 complete control)
Outline: as §3

[15] = tested on: barnyardgrass; assay: Test B flooded paddy test; type: in vivo, Echinochloa crus-galli; conditions: 1000 g ai/ha, scale 0 to 100 (0 no effect, 100 complete control)
Outline: as §3

[16] = 500 g ai/ha, visual rating 0-100, 0 no effect, 100 complete control, preemergence
[17] = postemergence, 125 g ai/ha, visual rating, scale 0 (no effect) to 100 (complete control)
[18] = postemergence, 500 g ai/ha, visual rating, scale 0 (no effect) to 100 (complete control)
[19] = preemergence, 125 g ai/ha, 0 to 100 scale, 0 is no effect, 100 is complete control
[20] = postemergence, 125 g ai/ha; visual rating, scale 0 (no effect) to 100 (complete control)
[21] = postemergence, 500 g ai/ha; visual rating, scale 0 (no effect) to 100 (complete control)
[22] = Postemergence, 500 g ai/ha, visual rating after 13 to 15 days, scale 0 (no effect) to 100 (complete control)
[23] = Preemergence, 500 g ai/ha, scale 0 to 100
[24] = Postemergence, 500 g ai/ha; visual rating after 13 to 15 days, scale 0 (no effect) to 100 (complete control)
[25] = 125 g ai/ha, 0 = no effect, 100 = complete control, preemergence
[26] = 125 g ai/ha, visual rating, scale 0 (no effect) to 100 (complete control), postemergence
[27] = 500 g ai/ha, visual rating, 0 = no effect, 100 = complete control, preemergence
[28] = postemergence, 500 g ai/ha, scale 0 to 100, 0 is no effect, 100 is complete control
[29] = 125 g ai/ha; visual rating, scale 0 (no effect) to 100 (complete control); postemergence
[30] = postemergence, 500 g ai/ha; scale 0 to 100, 0 is no effect, 100 is complete control

CCn1nc(C(C)(C)C)cc1C(=O)Nc1cccc(C#N)c1 [Compound 139]
Plant response rating, Surinam Grass [1, 16]: 90 | Surinam Grass plant response rating [1, 17]: 10 | Surinam Grass plant response rating [1, 18]: 20 | Plant response rating, Surinam Grass [1, 19]: 30 | Plant response rating, Cocklebur [2, 16]: 10 | Cocklebur plant response rating [2, 17]: 20 | Cocklebur plant response rating [2, 18]: 100 | Plant response rating, Cocklebur [2, 19]: 0 | Plant response rating, Corn [3, 16]: 40 | Corn plant response rating [3, 17]: 10 | Corn plant response rating [3, 18]: 20 | Plant response rating, Corn [3, 19]: 10 | Plant response rating, Crabgrass, Large [4, 16]: 100 | Crabgrass, Large plant response rating [4, 17]: 10 | Crabgrass, Large plant response rating [4, 18]: 20 | Plant response rating, Crabgrass, Large [4, 19]: 60 | Plant response rating, Foxtail, Giant [5, 16]: 100 | Foxtail, Giant plant response rating [5, 17]: 10 | Foxtail, Giant plant response rating [5, 18]: 20 | Plant response rating, Foxtail, Giant [5, 19]: 70 | Plant response rating, Lambsquarters [6, 16]: 100 | Lambsquarters plant response rating [6, 17]: 80 | Lambsquarters plant response rating [6, 18]: 90 | Plant response rating, Lambsquarters [6, 19]: 100 | Plant response rating, Morningglory [7, 16]: 30 | Morningglory plant response rating [7, 17]: 10 | Morningglory plant response rating [7, 18]: 100 | Plant response rating, Morningglory [7, 19]: 10 | Plant response rating, Pigweed [8, 16]: 100 | Pigweed plant response rating [8, 17]: 60 | Pigweed plant response rating [8, 18]: 90 | Plant response rating, Pigweed [8, 19]: 90 | Plant response rating, Velvetleaf [9, 16]: 80 | Velvetleaf plant response rating [9, 17]: 20 | Velvetleaf plant response rating [9, 18]: 60 | Plant response rating, Velvetleaf [9, 19]: 50 | Blackgrass plant response rating [10, 20]: 0 | Blackgrass plant response rating [10, 21]: 10 | Wheat plant response rating [11, 21]: 10 | Oat, Wild plant response rating [12, 20]: 10 | Oat, Wild plant response rating [12, 21]: 10 | Rice plant response rating ([13]; visual rating, 13 to 15 days): 50 | Sedge, Umbrella plant response rating ([14]; visual rating, 13 to 15 days): 80 | Barnyardgrass plant response rating ([15]; visual rating, 13 to 15 days): 70

CCCn1nc(C(C)(C)C)cc1C(=O)Nc1cccc(C(=O)NCC)c1 [Compound 57]
Plant response rating, Surinam Grass [1, 22]: 20 | Surinam Grass plant response rating [1, 23]: 40 | Surinam Grass plant response rating [1, 17]: 10 | Plant response rating, Surinam Grass [1, 19]: 20 | Plant response rating, Cocklebur [2, 22]: 60 | Cocklebur plant response rating [2, 23]: 10 | Cocklebur plant response rating [2, 17]: 30 | Plant response rating, Cocklebur [2, 19]: 0 | Plant response rating, Corn [3, 22]: 20 | Corn plant response rating [3, 23]: 0 | Corn plant response rating [3, 17]: 20 | Plant response rating, Corn [3, 19]: 0 | Plant response rating, Crabgrass, Large [4, 22]: 20 | Crabgrass, Large plant response rating [4, 23]: 100 | Crabgrass, Large plant response rating [4, 17]: 10 | Plant response rating, Crabgrass, Large [4, 19]: 40 | Plant response rating, Foxtail, Giant [5, 22]: 30 | Foxtail, Giant plant response rating [5, 23]: 100 | Foxtail, Giant plant response rating [5, 17]: 20 | Plant response rating, Foxtail, Giant [5, 19]: 20 | Plant response rating, Lambsquarters [6, 22]: 90 | Lambsquarters plant response rating [6, 23]: 100 | Lambsquarters plant response rating [6, 17]: 70 | Plant response rating, Lambsquarters [6, 19]: 100 | Plant response rating, Morningglory [7, 22]: 10 | Morningglory plant response rating [7, 23]: 0 | Morningglory plant response rating [7, 17]: 10 | Plant response rating, Morningglory [7, 19]: 0 | Plant response rating, Pigweed [8, 22]: 80 | Pigweed plant response rating [8, 23]: 100 | Pigweed plant response rating [8, 17]: 70 | Plant response rating, Pigweed [8, 19]: 90 | Plant response rating, Velvetleaf [9, 22]: 30 | Velvetleaf plant response rating [9, 23]: 0 | Velvetleaf plant response rating [9, 17]: 20 | Plant response rating, Velvetleaf [9, 19]: 0 | Plant response rating, Blackgrass [10, 24]: 10 | Blackgrass plant response rating [10, 20]: 0 | Plant response rating, Wheat [11, 24]: 10 | Wheat plant response rating [11, 20]: 10 | Plant response rating, Oat, Wild [12, 24]: 30 | Oat, Wild plant response rating [12, 20]: 30 | Rice plant response rating ([13]; visual rating, 13 to 15 days): 60 | Sedge, Umbrella plant response rating ([14]; visual rating, 13 to 15 days): 60 | Barnyardgrass plant response rating ([15]; visual rating, 13 to 15 days): 60

CCn1nc(C2(C)CC2)cc1C(=O)Nc1cccc(C(=O)N2CC=CC2)c1 [Compound 304]
Surinam Grass plant response rating (0 to 100 scale) [1, 25]: 10 | Surinam Grass plant response rating [1, 26]: 0 | Plant response rating, Surinam Grass [1, 27]: 70 | Surinam Grass plant response rating [1, 28]: 10 | Cocklebur plant response rating (0 to 100 scale) [2, 25]: 0 | Cocklebur plant response rating [2, 26]: 0 | Plant response rating, Cocklebur [2, 27]: 0 | Cocklebur plant response rating [2, 28]: 100 | Corn plant response rating (0 to 100 scale) [3, 25]: 0 | Corn plant response rating [3, 26]: 40 | Corn plant response rating [3, 28]: 80 | Crabgrass, Large plant response rating (0 to 100 scale) [4, 25]: 10 | Crabgrass, Large plant response rating [4, 26]: 10 | Plant response rating, Crabgrass, Large [4, 27]: 100 | Crabgrass, Large plant response rating [4, 28]: 10 | Foxtail, Giant plant response rating (0 to 100 scale) [5, 25]: 10 | Foxtail, Giant plant response rating [5, 26]: 30 | Plant response rating, Foxtail, Giant [5, 27]: 90 | Foxtail, Giant plant response rating [5, 28]: 30 | Lambsquarters plant response rating (0 to 100 scale) [6, 25]: 100 | Lambsquarters plant response rating [6, 26]: 80 | Plant response rating, Lambsquarters [6, 27]: 100 | Lambsquarters plant response rating [6, 28]: 90 | Morningglory plant response rating (0 to 100 scale) [7, 25]: 10 | Morningglory plant response rating [7, 26]: 100 | Plant response rating, Morningglory [7, 27]: 10 | Morningglory plant response rating [7, 28]: 100 | Pigweed plant response rating (0 to 100 scale) [8, 25]: 100 | Pigweed plant response rating [8, 26]: 90 | Plant response rating, Pigweed [8, 27]: 100 | Pigweed plant response rating [8, 28]: 90 | Velvetleaf plant response rating [9, 26]: 10 | Plant response rating, Velvetleaf [9, 27]: 100 | Velvetleaf plant response rating [9, 28]: 60 | Blackgrass plant response rating [10, 29]: 10 | Blackgrass plant response rating [10, 30]: 40 | Wheat plant response rating [11, 29]: 10 | Wheat plant response rating [11, 30]: 20 | Oat, Wild plant response rating [12, 29]: 30 | Oat, Wild plant response rating [12, 30]: 40 | Rice plant response rating [13]: 90 | Sedge, Umbrella plant response rating [14]: 90 | Barnyardgrass plant response rating [15]: 80

From patent US20060069132A1, “Azolecarboxamide herbicides” (priority 2004, published 2006)
